Article PMC7866972, “Crosstalk of Cancer Signaling Pathways by Cyclic Hexapeptides and Anthraquinones from Rubia cordifolia” (Molecules, 2021)

Assays:
Format in all cases: cell-based
Stat3 = Stat3 luciferase reporter assay (IL-6 induced); settings: Homo sapiens, HeLa cells
Description: (§1) Hela cells from ATCC were plated in white opaque 384 well plates at a density of 4300 cells/well in 30 µL of a growth medium (DMEM with 10% FBS and 1% Pen/step). The next day, the medium was aspirated and replaced with DMEM containing 10% FBS. The cells were transfected with respective plasmids using the X-tremeGENE HP transfection reagent (Roche). Luciferase vectors used in this assay are summarized in Table S2, Supporting Information. After 24 h of transfection, the test agents were added to the transfected cells, followed 30 min later by an inducing agent (IL-6 for Stat 3, TGF-beta for Smad, m-wnt3a for Wnt and PMA for AP-1, NF-kB, E2F, Myc, ETS, Notch and Hedgehog). No inducer was added for FoXO, miR-21, and […]. After 4 h or 6 h of induction, the cells were lysed by the addition of the One-Glo luciferase assay system (Promega, Madison, WI, USA). The light output was detected in a Glomax Multi+ detection system with the Instinct Software (Promega, Madison, WI, USA). This luciferase assay determines if the test agent was able to inhibit the activation of cancer-related signaling pathways. In the case of FoxO and mi-R21, the enhanced luciferase activity by the test agent was assessed.

Smad = Smad luciferase reporter assay (TGF-beta induced); settings: Homo sapiens, HeLa cells
Description: as §1

Ap-1 = test: AP-1 luciferase reporter assay (PMA induced); settings: HeLa cells, compared to pTK as control, 4 h, read-out: percentage of luciferase induction Ap-1/PMA
Description: as §1

NF-κB = NF-κB luciferase reporter assay (PMA induced); settings: HeLa cells
Description: as §1

E2F = E2F luciferase reporter assay (PMA induced); settings: Homo sapiens, HeLa cells, compared to pTK as control, 4 h, read-out: percentage of luciferase induction E2F/PMA
Description: as §1

Myc = Myc luciferase reporter assay (PMA induced); settings: Homo sapiens, HeLa cells
Description: as §1

Ets = Ets luciferase reporter assay (PMA induced); settings: Homo sapiens, HeLa cells
Description: as §1

Notch = Notch luciferase reporter assay (PMA induced); settings: Homo sapiens, HeLa cells, compared to pTK as control, 6 h, read-out: percentage of luciferase induction Notch/PMA
Description: as §1

FoxO = FoxO luciferase reporter assay (no inducer); settings: Homo sapiens, HeLa cells, 6 h, read-out: percentage of luciferase induction FoxO/No Induction
Description: as §1

Wnt = Wnt luciferase reporter assay (m-wnt3a induced); settings: Homo sapiens, HeLa cells
Description: as §1

Hedgehog = Hedgehog luciferase reporter assay (PMA induced); settings: Homo sapiens, HeLa cells, compared to pTK as control, 6 h, read-out: percentage of luciferase induction Hdghog/PMA
Description: as §1

miR-21 = miR-21 luciferase reporter assay (no inducer); settings: Homo sapiens, HeLa cells, 6 h, read-out: percentage of luciferase induction mi-R21/No Induction
Description: as §1

pTK control vector = pTK control vector luciferase assay (minimal thymidine kinase promoter); settings: Homo sapiens, HeLa cells, no inducer, read-out: percentage of luciferase induction pTK/No Induction
Description: as §1

[1] = system: cancer-related signaling pathways in HeLa cells; test: Panel of luciferase reporter genes for cancer-related signaling pathways; settings: HeLa cells; 30 µM
Description: as §1
The simulated gastric fluid was prepared as described in the United States Pharmacopoeia (USP, 1995) and consists of 0.2% w/v of NaCl and 0.7% v/v of hydrochloric acid at pH 1.2. Aliquots (48 µL) of SGF were placed in 1.5-mL microcentrifuge tubes and incubated in a water bath at 37 °C [35]. In addition, 2 µL of compound 6 (10 mg/mL in DMSO) was added to each of the SGF vials to start the digestion reaction. The incubation was continued for 60 min and the digestion was stopped with 150 µL of ice-cold cell culture media. The digested samples were used for the cytotoxicity and luciferase assays at different concentrations and the activities were compared between the untreated and SGF treated peptide samples.

[2] = compared to pTK as control, 4 h, read-out: percentage of luciferase induction Stat3/IL-6
[3] = compared to pTK as control, 4 h, read-out: percentage of luciferase induction Smad/TGF-β
[4] = Homo sapiens, compared to pTK as control, 4 h, read-out: percentage of luciferase induction NF-kB/PMA
[5] = compared to pTK as control, 4 h, read-out: percentage of luciferase induction Myc/PMA
[6] = compared to pTK as control, 4 h, read-out: percentage of luciferase induction Ets/PMA
[7] = compared to pTK as control, 6 h, read-out: percentage of luciferase induction Wnt/m-wnt 3a

`O=C1c2ccccc2C(=O)c2c1ccc(O)c2O` [Compound 1, alizarin] showed an activity at 30 µM (Stat3; [2]) of 81%, an activity at 30 µM (Smad; [3]) of 109% and an activity at 30 µM (Ap-1) of 87%. The activity at 30 µM (NF-κB; [4]) was 60%, the activity at 30 µM (E2F) was 172% and the activity at 30 µM (Myc; [5]) was 61%. It also gave an activity at 30 µM (Ets; [6]) of 66%, an activity at 30 µM (Notch) of 106% and an activity at 30 µM (FoxO) of 69%. The activity at 30 µM (Wnt; [7]) was 46%, the activity at 30 µM (Hedgehog) was 57% and the activity at 30 µM (miR-21) was 141%. For the same compound, the activity at 30 µM (pTK control vector) was 116% and the “activity towards the signaling pathways (in words)” value [1] was “selective inhibition of Wnt and Hedgehog signaling pathways”.

`O=C1c2ccccc2C(=O)c2c(O)c(O)cc(O)c21` [Compound 2, purpurin] showed an activity at 30 µM (Stat3; [2]) of 102%, an activity at 30 µM (Smad; [3]) of 163% and an activity at 30 µM (Ap-1) of 73%. For the same compound, the activity at 30 µM (NF-κB; [4]) was 65%, the activity at 30 µM (E2F) was 190% and the activity at 30 µM (Myc; [5]) was 61%. For the same compound, the activity at 30 µM (Ets; [6]) was 103%, the activity at 30 µM (Notch) was 194% and the activity at 30 µM (FoxO) was 94%. For the same compound, the activity at 30 µM (Wnt; [7]) was 77%, the activity at 30 µM (Hedgehog) was 152% and the activity at 30 µM (miR-21) was 259%. The activity at 30 µM (pTK control vector) was 198% and the “activity towards the signaling pathways (in words)” value [1] was “least active among these three anthraquinones”.

In the case of `Cc1cc(O)c2c(c1)C(=O)c1cc(O)cc(O)c1C2=O` [Compound 3, emodin], the activity at 30 µM (Stat3; [2]) is reported as 48%, the activity at 30 µM (Smad; [3]) is reported as 46% and the activity at 30 µM (Ap-1) is reported as 45%. It also gave an activity at 30 µM (NF-κB; [4]) of 45%, an activity at 30 µM (E2F) of 144% and an activity at 30 µM (Myc; [5]) of 46%. It also gave an activity at 30 µM (Ets; [6]) of 53%, an activity at 30 µM (Notch) of 424% and an activity at 30 µM (FoxO) of 112%. The activity at 30 µM (Wnt; [7]) was 11%, the activity at 30 µM (Hedgehog) was 42% and the activity at 30 µM (miR-21) was 309%. The activity at 30 µM (pTK control vector) was 144% and the “activity towards the signaling pathways (in words)” value [1] was “inhibited the activation of several pathways with Wnt being the most sensitive”.

Compound `Cc1cc(O)c2c(c1)C(=O)c1cccc(O)c1C2=O` [Compound 11, chrysophanol, reference compound] has an activity at 30 µM (Stat3; [2]) of 171%, an activity at 30 µM (Smad; [3]) of 160% and an activity at 30 µM (Ap-1) of 115%. It also gave an activity at 30 µM (NF-κB; [4]) of 90%, an activity at 30 µM (E2F) of 251% and an activity at 30 µM (Myc; [5]) of 144%. For the same compound, the activity at 30 µM (Ets; [6]) was 130%, the activity at 30 µM (Notch) was 195% and the activity at 30 µM (FoxO) was 102%. It also gave an activity at 30 µM (Wnt; [7]) of 114%, an activity at 30 µM (Hedgehog) of 214% and an activity at 30 µM (miR-21) of 280%. The activity at 30 µM (pTK control vector) was 183%.

`O=C1c2cccc(O)c2C(=O)c2c(O)cccc21` [Compound 12, danthron, reference compound] showed an activity at 30 µM (Stat3; [2]) of 137%, an activity at 30 µM (Smad; [3]) of 101% and an activity at 30 µM (Ap-1) of 122%. It also gave an activity at 30 µM (NF-κB; [4]) of 62%, an activity at 30 µM (E2F) of 328% and an activity at 30 µM (Myc; [5]) of 115%. It also gave an activity at 30 µM (Ets; [6]) of 120%, an activity at 30 µM (Notch) of 126% and an activity at 30 µM (FoxO) of 85%. For the same compound, the activity at 30 µM (Wnt; [7]) was 122%, the activity at 30 µM (Hedgehog) was 168% and the activity at 30 µM (miR-21) was 156%. It also gave an activity at 30 µM (pTK control vector) of 101%.

`O=C1c2ccccc2C(=O)c2c(O)ccc(O)c21` [Compound 13, quinizarin, reference compound] was tested, and the activity at 30 µM (Stat3; [2]) was 164%, the activity at 30 µM (Smad; [3]) was 159% and the activity at 30 µM (Ap-1) was 107%. It also gave an activity at 30 µM (NF-κB; [4]) of 62%, an activity at 30 µM (E2F) of 282% and an activity at 30 µM (Myc; [5]) of 81%. The activity at 30 µM (Ets; [6]) was 127%, the activity at 30 µM (Notch) was 198% and the activity at 30 µM (FoxO) was 101%. For the same compound, the activity at 30 µM (Wnt; [7]) was 97%, the activity at 30 µM (Hedgehog) was 142% and the activity at 30 µM (miR-21) was 171%. For the same compound, the activity at 30 µM (pTK control vector) was 134%.

In the case of `O=C1c2cccc(O)c2C(=O)c2c(O)cc(CO)cc21` [Compound 14, aloe-emodin, reference compound], the activity at 30 µM (Stat3; [2]) is reported as 132%, the activity at 30 µM (Smad; [3]) is reported as 78% and the activity at 30 µM (Ap-1) is reported as 138%. For the same compound, the activity at 30 µM (E2F) was 178%, the activity at 30 µM (Myc; [5]) was 95% and the activity at 30 µM (Ets; [6]) was 128%. The activity at 30 µM (Notch) was 157%, the activity at 30 µM (FoxO) was 109% and the activity at 30 µM (Wnt; [7]) was 129%. For the same compound, the activity at 30 µM (Hedgehog) was 99%, the activity at 30 µM (miR-21) was 167% and the activity at 30 µM (pTK control vector) was 136%.

`CC1(C)CCC2=C(O1)C(=O)c1ccccc1C2=O` [Compound 15, α-lapachone, reference compound] gave an activity at 5 µM (Stat3; 5 µM, compared to pTK as control, 4 h, read-out: percentage of luciferase induction Stat3/IL-6) of 22%, an inhibition at 5 µM (Stat3; 5 µM, read-out: inhibition of Stat3 induction) greater than 50% and an activity at 5 µM (Smad; 5 µM, compared to pTK as control, 4 h, read-out: percentage of luciferase induction Smad/TGF-β) of 27%. The inhibition at 5 µM (Smad; 5 µM, read-out: inhibition of Smad induction) was greater than 50%, the activity at 5 µM (Ap-1; 5 µM) was 88% and the “inhibition of NF-kB induction” value (NF-κB; 5 µM) was “more than 50%”. The activity at 5 µM (NF-κB; Homo sapiens, 5 µM, compared to pTK as control, 4 h, read-out: percentage of luciferase induction NF-kB/PMA) was 44%, the activity at 5 µM (E2F; 5 µM) was 82% and the activity at 5 µM (Myc; 5 µM, compared to pTK as control, 4 h, read-out: percentage of luciferase induction Myc/PMA) was 44%. For the same compound, the inhibition at 5 µM (Myc; 5 µM, read-out: inhibition of Myc induction) was greater than 50%, the activity at 5 µM (Ets; 5 µM, compared to pTK as control, 4 h, read-out: percentage of luciferase induction Ets/PMA) was 45% and the inhibition at 5 µM (Ets; 5 µM, read-out: inhibition of ETS induction) was greater than 50%. The activity at 5 µM (Notch; 5 µM) was 85%, the activity at 5 µM (FoxO; 5 µM) was 100% and the activity at 5 µM (Wnt; 5 µM, compared to pTK as control, 6 h, read-out: percentage of luciferase induction Wnt/m-wnt 3a) was 53%. The inhibition at 5 µM (Wnt; 5 µM, read-out: inhibition of Wnt induction) was greater than 50%, the activity at 5 µM (Hedgehog; 5 µM) was 86% and the activity at 5 µM (miR-21; 5 µM) was 127%. For the same compound, the activity at 5 µM (pTK control vector; 5 µM) was 97%.
